{"source": "patent US8609620B2", "about": "“Neuregulin peptides and their use” (Zensun (Shanghai) Science & Technology Ltd., priority 2008, dated 2013)", "molecules": {"B1": {"name": "SHLVKCAEKEKTFCVNGGECFMVKDLSNPSRYLCKCPNEFTGDRCQNYVMASFYKAEELYQ (protein)", "chain": "SHLVKCAEKEKTFCVNGGECFMVKDLSNPSRYLCKCPNEFTGDRCQNYVMASFYKAEELYQ", "modifications": "chains of the parent or of the whole protein"}, "B2": {"name": "NRG: full length wild type neuregulin β2 peptide (protein)", "chain": "B1 chain"}}, "key": {"[1]": {"test_system": "AKT phosphorylation in cardiomyocytes", "test": "Effect of neuregulin peptides on the phosphorylation of AKT in cardiomyocytes (western blot)", "type": "cell-based, rat", "details": "cardiac cells from left ventricles of neonatal rats, different concentrations, 20 minutes, FIG. 1", "protocol": "To study the effect of synthesized peptides on ErbB2 and ErbB4 signaling in cardiomyocytes, cardiac cells extracted from left ventricles of neonatal rats were used.\nCardiac cells were grown in media with serum for 2 days. After the cells reached about 80% confluence, the media was changed to serum free media. After another 24 hours, different amounts of synthesized neuregulin peptides or neuregulin were added into separate wells containing the cells for 20 minutes. The media was then aspirated and gel loading buffer was added to lyse the cells. The sample was then harvested and loaded into a separate well of gel for electrophoresis and western blot analysis."}, "[2]": {"molecular_target": "T1, ErbB2 receptor (Homo sapiens, UniProt P04626+P21860)", "T1 construct": "endogenous in cells; host or cells: MCF-7", "test": "Receptor binding: neuregulin-induced ErbB2 phosphorylation in MCF-7 cells (ErbB2 antibody H4 capture, anti-phosphotyrosine ELISA)", "type": "cell-based", "details": "20 min at 37° C., concentration achieving 50% of maximum OD value at 450 nm", "source_text": "Briefly, the assay measures neuregulin induced ErbB2 activation and phosphorylation on the adherent breast carcinoma cell line, MCF-7. Membrane proteins are solubilized via Triton X-100 lysis and the receptor is captured in ELISA wells coated with ErbB2-specific antibodies (e.g., H4) with no cross-reaction to ErbB3 or ErbB4. The degree of receptor phosphorylation is then quantified by antiphosphotyrosine ELISA.\nMCF-7 cells was harvested, counted, pelleted and resuspended into DMEM (with 10% serum and 9 μg/ml insulin) at 5×10^4 cells/ml. 100 μl cell suspension was added to each well of 96 well plate and the plate was incubated at 37° C. overnight. The cells were then washed 3 times with PBS and grew in serum free DMEM for another 24 hours.\nErbB2 antibody H4 (Zensun, anti-ErbB2 monoclonal antibody) was diluted to 6 μg/ml by coating buffer (50 mM Na2CO3—NaHCO3, pH9.6), and added to 96 well plate 50 μl/well. The plate was left at 4° C. overnight to coat with antibody.\nDMEM was added to two wells as blank. The plate was incubated at 37° C. for 20 min. The cells were washed once with PBS before adding 100 μl/well lysis buffer (50 mM Hepes, pH 8.0, 150 mM NaCl, 2 mM sodium orthovanadate, 0.01% thimerosal, 1% Triton X-100 and one protease inhibitor cocktail tablet per 25 ml solution) and lysing at 4° C. for 30 min. […]"}}, "data": [{"molecule": "CSCC[C@@H]1NC(=O)[C@H](Cc2ccccc2)NC(=O)[C@@H]2CSSC[C@H](NC(=O)[C@H](CCCCN)NC(=O)[C@@H](NC(=O)[C@H](CC(C)C)NC(=O)[C@H](Cc3c[nH]cn3)NC(=O)[C@@H](N)CO)C(C)C)C(=O)N[C@@H](C)C(=O)N[C@@H](CCC(=O)O)C(=O)N[C@@H](CCCCN)C(=O)N[C@@H](CCC(=O)O)C(=O)N[C@@H](CCCCN)C(=O)N[C@@H]([C@@H](C)O)C(=O)N[C@@H](Cc3ccccc3)C(=O)N[C@@H](CSSC[C@@H](C(=O)N[C@@H](CCCCN)C(=O)N[C@H]3CSSC[C@@H](C(=O)N[C@@H](CCC(N)=O)C(=O)N[C@@H](CC(N)=O)C(=O)N[C@@H](Cc4ccc(O)cc4)C(=O)N[C@H](C(=O)N[C@@H](CCSC)C(=O)N[C@@H](C)C(=O)N[C@@H](CO)C(=O)N[C@@H](Cc4ccccc4)C(=O)N[C@@H](Cc4ccc(O)cc4)C(=O)N[C@@H](CCCCN)C(=O)O)C(C)C)NC(=O)[C@H](CCCNC(=N)N)NC(=O)[C@H](CC(=O)O)NC(=O)CNC(=O)[C@H]([C@@H](C)O)NC(=O)[C@H](Cc4ccccc4)NC(=O)[C@H](CCC(=O)O)NC(=O)[C@H](CC(N)=O)NC(=O)[C@@H]4CCCN4C3=O)NC(=O)[C@H](CC(C)C)NC(=O)[C@H](Cc3ccc(O)cc3)NC(=O)[C@H](CCCNC(=N)N)NC(=O)[C@H](CO)NC(=O)[C@@H]3CCCN3C(=O)[C@H](CC(N)=O)NC(=O)[C@H](CO)NC(=O)[C@H](CC(C)C)NC(=O)[C@H](CC(=O)O)NC(=O)[C@H](CCCCN)NC(=O)[C@H](C(C)C)NC1=O)C(=O)N[C@@H](C(C)C)C(=O)N[C@@H](CC(N)=O)C(=O)NCC(=O)NCC(=O)N[C@@H](CCC(=O)O)C(=O)N2", "note": "[NRG55]", "values": [{"measurement": "effect on AKT phosphorylation compared with NRG", "setting": "[1]", "value": "much stronger effect than NRG"}]}, {"molecule": "CSCC[C@@H]1NC(=O)[C@H](Cc2ccccc2)NC(=O)[C@@H]2CSSC[C@H](NC(=O)[C@H](CCCCN)NC(=O)[C@@H](NC(=O)[C@H](CC(C)C)NC(=O)[C@H](Cc3c[nH]cn3)NC(=O)[C@@H](N)CO)C(C)C)C(=O)N[C@@H](C)C(=O)N[C@@H](CCC(=O)O)C(=O)N[C@@H](CCCCN)C(=O)N[C@@H](CCC(=O)O)C(=O)N[C@@H](CCCCN)C(=O)N[C@@H]([C@@H](C)O)C(=O)N[C@@H](Cc3ccccc3)C(=O)N[C@@H](CSSC[C@@H](C(=O)N[C@@H](CCCCN)C(=O)N[C@H]3CSSC[C@@H](C(=O)N[C@@H](CCC(N)=O)C(=O)N[C@@H](CC(N)=O)C(=O)N[C@@H](Cc4ccc(O)cc4)C(=O)N[C@H](C(=O)N[C@@H](CCSC)C(=O)N[C@@H](C)C(=O)N[C@@H](CO)C(=O)N[C@@H](Cc4ccccc4)C(=O)N[C@@H](Cc4ccc(O)cc4)C(=O)N[C@@H](CCCCN)C(=O)N[C@@H](C)C(=O)N[C@@H](CCC(=O)O)C(=O)N[C@@H](CCC(=O)O)C(=O)N[C@@H](CC(C)C)C(=O)O)C(C)C)NC(=O)[C@H](CCCNC(=N)N)NC(=O)[C@H](CC(=O)O)NC(=O)CNC(=O)[C@H]([C@@H](C)O)NC(=O)[C@H](Cc4ccccc4)NC(=O)[C@H](CCC(=O)O)NC(=O)[C@H](CC(N)=O)NC(=O)[C@@H]4CCCN4C3=O)NC(=O)[C@H](CC(C)C)NC(=O)[C@H](Cc3ccc(O)cc3)NC(=O)[C@H](CCCNC(=N)N)NC(=O)[C@H](CO)NC(=O)[C@@H]3CCCN3C(=O)[C@H](CC(N)=O)NC(=O)[C@H](CO)NC(=O)[C@H](CC(C)C)NC(=O)[C@H](CC(=O)O)NC(=O)[C@H](CCCCN)NC(=O)[C@H](C(C)C)NC1=O)C(=O)N[C@@H](C(C)C)C(=O)N[C@@H](CC(N)=O)C(=O)NCC(=O)NCC(=O)N[C@@H](CCC(=O)O)C(=O)N2", "note": "[NRG59]", "values": [{"measurement": "effect on AKT phosphorylation compared with NRG", "setting": "[1]", "value": "almost have the same effect as NRG"}]}, {"molecule": "CSCC[C@@H]1NC(=O)[C@H](Cc2ccccc2)NC(=O)[C@@H]2CSSC[C@H](NC(=O)[C@H](CCCCN)NC(=O)[C@@H](NC(=O)[C@H](CC(C)C)NC(=O)[C@H](Cc3c[nH]cn3)NC(=O)[C@@H](N)CO)C(C)C)C(=O)N[C@@H](C)C(=O)N[C@@H](CCC(=O)O)C(=O)N[C@@H](CCCCN)C(=O)N[C@@H](CCC(=O)O)C(=O)N[C@@H](CCCCN)C(=O)N[C@@H]([C@@H](C)O)C(=O)N[C@@H](Cc3ccccc3)C(=O)N[C@@H](CSSC[C@@H](C(=O)N[C@@H](CCCCN)C(=O)N[C@H]3CSSC[C@@H](C(=O)N[C@@H](CCC(N)=O)C(=O)N[C@@H](CC(N)=O)C(=O)N[C@@H](Cc4ccc(O)cc4)C(=O)N[C@H](C(=O)N[C@@H](CCSC)C(=O)N[C@@H](C)C(=O)N[C@@H](CO)C(=O)N[C@@H](Cc4ccccc4)C(=O)N[C@@H](Cc4ccc(O)cc4)C(=O)N[C@@H](CCCCN)C(=O)N[C@@H](C)C(=O)N[C@@H](CCC(=O)O)C(=O)O)C(C)C)NC(=O)[C@H](CCCNC(=N)N)NC(=O)[C@H](CC(=O)O)NC(=O)CNC(=O)[C@H]([C@@H](C)O)NC(=O)[C@H](Cc4ccccc4)NC(=O)[C@H](CCC(=O)O)NC(=O)[C@H](CC(N)=O)NC(=O)[C@@H]4CCCN4C3=O)NC(=O)[C@H](CC(C)C)NC(=O)[C@H](Cc3ccc(O)cc3)NC(=O)[C@H](CCCNC(=N)N)NC(=O)[C@H](CO)NC(=O)[C@@H]3CCCN3C(=O)[C@H](CC(N)=O)NC(=O)[C@H](CO)NC(=O)[C@H](CC(C)C)NC(=O)[C@H](CC(=O)O)NC(=O)[C@H](CCCCN)NC(=O)[C@H](C(C)C)NC1=O)C(=O)N[C@@H](C(C)C)C(=O)N[C@@H](CC(N)=O)C(=O)NCC(=O)NCC(=O)N[C@@H](CCC(=O)O)C(=O)N2", "note": "[NRG57]", "values": [{"measurement": "effect on AKT phosphorylation compared with NRG", "setting": "[1]", "value": "almost have the same effect as NRG"}]}, {"molecule": "B1", "values": [{"measurement": "EC50", "setting": "[2]", "value": 1.439, "unit": "mg/L"}]}, {"molecule": "B2", "values": [{"measurement": "EC50", "setting": "[2]", "value": 0.2772, "unit": "mg/L"}]}]}
